From EPA's CvTdb concentration-time database

What was measured:
Rat [1] = assay: concentration in plasma after dosing; details: dosed: Fluorotelomer alcohol 8+2, 12 mg/kg, iv, Male, F344
Rat [2] = assay: concentration in plasma after dosing; details: 5 min; dosed: Fluorotelomer alcohol 8+2; 12 mg/kg; iv; Male; F344
Rat [3] = assay: concentration in plasma after dosing; details: dosed: Fluorotelomer alcohol 8+2, 12 mg/kg, iv, Male, F344; remark: listed apart in the source
Rat [4] = assay: concentration in plasma after dosing; details: dosed: Fluorotelomer alcohol 8+2, 12 mg/kg, oral, Male, Harlan Sprague Dawley
Rat [5] = assay: concentration in plasma after dosing; details: dosed: Fluorotelomer alcohol 8+2, 12 mg/kg, iv, Male, F344; remark: listed apart in the source
Rat [6] = assay: concentration in liver after dosing; details: 3 h; dosed: Fluorotelomer alcohol 8+2; 80 mg/kg; oral; Female; Harlan Sprague Dawley
Rat [7] = assay: concentration in plasma after dosing; details: dosed: Fluorotelomer alcohol 8+2, 12 mg/kg, oral, Male, Harlan Sprague Dawley; remark: listed apart in the source
Rat [8] = assay: concentration in plasma after dosing; details: 22 h; dosed: Primidone; 30 mg/kg; oral; Male; F344
Rat [9] = assay: concentration in plasma after dosing; details: dosed: Perfluorodecanoic acid, 2 mg/kg, iv, Male, F344
Rat [10] = assay: concentration in brain after dosing; details: 1848 h; dosed: Perfluorodecanoic acid; 10 mg/kg; oral; Female; Harlan Sprague Dawley
Rat [11] = assay: concentration in plasma after dosing; details: dosed: Perfluorodecanoic acid, 2 mg/kg, iv, Male, F344; remark: listed apart in the source
Rat [12] = assay: concentration in liver after dosing; details: 3 h; dosed: Bis 2-Chloroethoxy Methane; 20 mg/kg; iv; Male; F344
Rat [13] = assay: concentration in plasma after dosing; details: 5 h; dosed: Bis 2-Chloroethoxy Methane; 20 mg/kg; iv; Male; F344
Rat [14] = assay: concentration in thymus after dosing; details: 40 min; dosed: Bis 2-Chloroethoxy Methane; 20 mg/kg; iv; Male; F344
Rat [15] = assay: concentration in liver after dosing; details: 10 min; dosed: Bis 2-Chloroethoxy Methane; 20 mg/kg; iv; Female; F344
Rat [16] = assay: concentration in plasma after dosing; details: dosed: Bis 2-Chloroethoxy Methane, 40 mg/kg, iv, Male, Harlan Sprague Dawley
Rat [17] = assay: concentration in heart after dosing; details: 3 h; dosed: Bis 2-Chloroethoxy Methane; 20 mg/kg; iv; Female; F344
Rat [18] = assay: concentration in liver after dosing; details: 1 h; dosed: Bis 2-Chloroethoxy Methane; 20 mg/kg; iv; Female; F344
Rat [19] = assay: concentration in plasma after dosing; details: 4 h; dosed: Bis 2-Chloroethoxy Methane; 20 mg/kg; iv; Female; F344
Rat [20] = assay: concentration in liver after dosing; details: 5 h; dosed: Bis 2-Chloroethoxy Methane; 20 mg/kg; iv; Male; F344
Rat [21] = assay: concentration in heart after dosing; details: 6 h; dosed: Bis 2-Chloroethoxy Methane; 20 mg/kg; iv; Male; F344
Rat [22] = assay: concentration in heart after dosing; details: 20 min; dosed: Bis 2-Chloroethoxy Methane; 20 mg/kg; iv; Female; F344
Rat [23] = assay: concentration in plasma after dosing; details: 0.25 h; dosed: Wyeth-14643; 2.0 mg/kg; iv; Male; Sprague-Dawley
Rat [24] = assay: concentration in plasma after dosing; details: 1 h; dosed: Wyeth-14643; 2.0 mg/kg; iv; Male; Sprague-Dawley
Rat [25] = assay: concentration in thymus after dosing; details: 20 min; dosed: Thiodiglycolic Acid; 20 mg/kg; iv; Female; Harlan Sprague Dawley
Rat [26] = assay: concentration in thymus after dosing; details: 1 h; dosed: Thiodiglycolic Acid; 20 mg/kg; iv; Male; Harlan Sprague Dawley
Rat [27] = assay: concentration in plasma after dosing; details: 20 min; dosed: Thiodiglycolic Acid; 20 mg/kg; iv; Female; Harlan Sprague Dawley
Rat [28] = assay: concentration in thymus after dosing; details: 6.667 h; dosed: Thiodiglycolic Acid; 20 mg/kg; iv; Female; Harlan Sprague Dawley
Rat [29] = assay: concentration in thymus after dosing; details: 5.333 h; dosed: Thiodiglycolic Acid; 20 mg/kg; iv; Female; Harlan Sprague Dawley
Rat [30] = assay: concentration in heart after dosing; details: 5.333 h; dosed: Thiodiglycolic Acid; 20 mg/kg; iv; Male; Harlan Sprague Dawley
Rat [31] = assay: concentration in thymus after dosing; details: 4 h; dosed: Thiodiglycolic Acid; 20 mg/kg; iv; Male; Harlan Sprague Dawley
Rat [32] = assay: concentration in thymus after dosing; details: 8 h; dosed: Thiodiglycolic Acid; 20 mg/kg; iv; Female; Harlan Sprague Dawley
Rat [33] = assay: concentration in heart after dosing; details: 4 h; dosed: Thiodiglycolic Acid; 20 mg/kg; iv; Female; Harlan Sprague Dawley
Rat [34] = assay: concentration in thymus after dosing; details: 10 h; dosed: Thiodiglycolic Acid; 20 mg/kg; iv; Female; Harlan Sprague Dawley
Rat [35] = assay: concentration in plasma after dosing; details: 1 h; dosed: Di-n-butyl phthalate; 20 mg/kg; iv; Male; Sprague-Dawley
Rat [36] = assay: concentration in plasma after dosing; details: 5 min; dosed: Di-n-butyl phthalate; 50 mg/kg; oral; Male; Sprague-Dawley
Rat [37] = assay: concentration in plasma after dosing; details: 6 h; dosed: Di-n-butyl phthalate; 20 mg/kg; iv; Male; Sprague-Dawley

How did the concentration in plasma (Rat [1]; 0.25 h) turn out when `OCCC(F)(F)C(F)(F)C(F)(F)C(F)(F)C(F)(F)C(F)(F)C(F)(F)C(F)(F)F` [Fluorotelomer alcohol 8+2] was run?
Its concentration in plasma is 1710 ng/mL.

What about the concentration in plasma (Rat [1]; 24 h) of the same molecule?
Its concentration in plasma is 3.59 ng/mL.

What about the concentration in plasma (Rat [2]) of the same molecule?
Its concentration in plasma is 24300 ng/mL.

What about the concentration in plasma (Rat [3]; 1 h) of the same molecule?
Its concentration in plasma is 619 ng/mL.

And the concentration in plasma (Rat [3]; 6 h)?
The concentration in plasma was 38.5 ng/mL.

What about the concentration in plasma (Rat [4]; 0.75 h) of the same molecule?
Its concentration in plasma is 294 ng/mL.

What about the concentration in plasma (Rat [4]; 12 h) of the same molecule?
The concentration in plasma was 4.64 ng/mL.

What about the concentration in plasma (Rat [5]; 0.5 h) of the same molecule?
The concentration in plasma was 1220 ng/mL.

What about the concentration in plasma (Rat [5]; 9 h) of the same molecule?
Its concentration in plasma is 19.6 ng/mL.

What about the concentration in liver (Rat [6]) of the same molecule?
The concentration in liver was 13000 ng/g.

What about the concentration in plasma (Rat [7]; 0.25 h) of the same molecule?
Its concentration in plasma is 253 ng/mL.

And the concentration in plasma (Rat [7]; 6 h)?
The concentration in plasma was 40.7 ng/mL.

For `CCC1(c2ccccc2)C(=O)NC(=O)NC1=O` [Phenobarbital], which concentration in plasma (Rat [8]) is on record?
The concentration in plasma was 1030 ng/mL.

With `O=C(O)C(F)(F)C(F)(F)C(F)(F)C(F)(F)C(F)(F)C(F)(F)C(F)(F)C(F)(F)C(F)(F)F` [Perfluorodecanoic acid] as the molecule, how does the concentration in plasma (Rat [9]; 24 h) read?
Its concentration in plasma is 5550 ng/mL.

What about the concentration in plasma (Rat [9]; 1848 h) of the same molecule?
The concentration in plasma was 488 ng/mL.

And the concentration in brain (Rat [10])?
Its concentration in brain is 680 ng/g.

What about the concentration in plasma (Rat [11]; 24 h) of the same molecule?
The concentration in plasma was 4280 ng/mL.

What about the concentration in plasma (Rat [11]; 1848 h) of the same molecule?
The concentration in plasma was 646 ng/mL.

`ClCCOCOCCCl` [Bis 2-Chloroethoxy Methane] was tested. Which concentration in liver (Rat [12]) did it give?
Its concentration in liver is 130 ng/g.

And the concentration in plasma (Rat [13])?
The concentration in plasma was 36.5 ng/mL.

What about the concentration in thymus (Rat [14]) of the same molecule?
The concentration in thymus was 8210 ng/g.

And the concentration in liver (Rat [15])?
Its concentration in liver is 973 ng/g.

What about the concentration in plasma (Rat [16]; 40 min) of the same molecule?
Its concentration in plasma is 8120 ng/mL.

What about the concentration in plasma (Rat [16]; 8 h) of the same molecule?
The concentration in plasma was 22 ng/mL.

And the concentration in heart (Rat [17])?
Its concentration in heart is 158 ng/g.

What about the concentration in liver (Rat [18]) of the same molecule?
The concentration in liver was 610 ng/g.

What about the concentration in plasma (Rat [19]) of the same molecule?
Its concentration in plasma is 63.4 ng/mL.

What about the concentration in liver (Rat [20]) of the same molecule?
Its concentration in liver is 42.7 ng/g.

What about the concentration in heart (Rat [21]) of the same molecule?
The concentration in heart was 19.3 ng/g.

And the concentration in heart (Rat [22])?
The concentration in heart was 6490 ng/g.

What does the source list for `Cc1cccc(Nc2cc(Cl)nc(SCC(=O)O)n2)c1C`?
concentration in plasma (Rat [23]): 17400 ng/mL; concentration in plasma (Rat [24]): 2190 ng/mL

How did the concentration in thymus (Rat [25]) turn out when `O=C(O)CSCC(=O)O` [Thiodiglycolic Acid] was run?
Its concentration in thymus is 8060 ng/g.

And the concentration in thymus (Rat [26])?
Its concentration in thymus is 2310 ng/g.

What about the concentration in plasma (Rat [27]) of the same molecule?
Its concentration in plasma is 11700 ng/mL.

What about the concentration in thymus (Rat [28]) of the same molecule?
Its concentration in thymus is 391 ng/g.

And the concentration in thymus (Rat [29])?
The concentration in thymus was 547 ng/g.

What about the concentration in heart (Rat [30]) of the same molecule?
Its concentration in heart is 383 ng/g.

What about the concentration in thymus (Rat [31]) of the same molecule?
Its concentration in thymus is 1490 ng/g.

And the concentration in thymus (Rat [32])?
The concentration in thymus was 544 ng/g.

What about the concentration in heart (Rat [33]) of the same molecule?
The concentration in heart was 348 ng/g.

And the concentration in thymus (Rat [34])?
The concentration in thymus was 254 ng/g.

With `CCCCOC(=O)c1ccccc1C(=O)O` [Mono-n-butyl phthalate] as the molecule, how does the concentration in plasma (Rat [35]) read?
Its concentration in plasma is 3480 ng/mL.

And the concentration in plasma (Rat [36])?
The concentration in plasma was 2400 ng/mL.

And the concentration in plasma (Rat [37])?
Its concentration in plasma is 1110 ng/mL.
